Results as given in PubChem BioAssay (NCI).
Values joined by “and” are separate entries in the source; they are usually repeats but may differ in a detail not shown here. Equal values may be shown once.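 Growth conditions: 96-well plates. Treatment: test compound, 48 hours, 5 concentrations. Analysis: linear interpolation between bracketing concentrations; unreached endpoints set to highest concentration. GI50: concentration for 50% inhibition of growth. TGI: concentration producing complete growth inhibition.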

Legend:
Assay in all cases: DTP human tumour cell line panel, 48 h
[1] = tested on: UACC-257 melanoma
[2] = tested on: OVCAR-3 ovarian
[3] = tested on: UACC-62 melanoma
[4] = tested on: SK-OV-3 ovarian
[5] = tested on: HCC-2998 colon
[6] = tested on: U251 CNS
[7] = tested on: MDA-MB-231 breast
[8] = tested on: OVCAR-4 ovarian
[9] = tested on: NCI-H226 lung
[10] = tested on: MALME-3M melanoma
[11] = tested on: SN12C renal
[12] = tested on: CAKI-1 renal
[13] = tested on: MCF7 breast
[14] = tested on: NCI-H23 lung
[15] = tested on: A549 NSCLC
[16] = tested on: PC-3 prostate
[17] = tested on: 786-0 renal
[18] = tested on: SNB-75 CNS

| Structure (SMILES) | TGI [1] | TGI [2] [µM] | TGI [3] [µM] | TGI [4] [µM] | TGI [5] [µM] | TGI [6] [µM] | TGI [7] [µM] | TGI [8] [µM] | TGI [9] [µM] | TGI [10] [µM] | TGI [11] [µM] | TGI [12] [µM] | TGI [13] [µM] | TGI [14] [µM] | TGI [15] [µM] | TGI [16] [µM] | TGI [17] [µM] | TGI [18] [µM] | GI50 [12] [µM] |
| --- | --- | --- | --- | --- | --- | --- | --- | --- | --- | --- | --- | --- | --- | --- | --- | --- | --- | --- | --- |
| CN(/N=C(\C(=O)O)c1ccccc1)C1=NCCCN1 | > 100 µM | > 100 | > 100 | > 100 | > 100 | > 100 | > 100 | > 100 | > 100 | > 100 | > 100 | > 100 | > 100 | > 100 | > 100 | > 100 | > 100 | > 100 | – |
| CC1CC[C@@H](C(C)C)[C@H](Oc2nnc(C3OC(CO)C(O)C3O)o2)C1 (some centres undefined) | > 100 µM | > 100 | > 100 | > 100 | > 100 | > 100 | > 100 | > 100 | > 100 | > 100 | > 100 | > 100 | > 100 | > 100 | > 100 | > 100 | > 100 | > 100 | – |
| CCC1(CC)CC(=NNS(=O)(=O)c2ccc(C)cc2)C1 | > 100 µM | > 100 | > 100 | > 100 | > 100 | > 100 | > 100 | > 100 | > 100 | > 100 | > 100 | > 100 | > 100 | > 100 | > 100 | > 100 | > 100 | > 100 | – |
| O=C(NCc1cccnc1)NCc1cccnc1 | > 100 µM | > 100 | > 100 | > 100 | > 100 | > 100 | > 100 | > 100 | > 100 | > 100 | > 100 | > 100 | > 100 | > 100 | > 100 | > 100 | > 100 | > 100 | – |
| CC(=O)Nc1ccccc1SCCSSCCSc1ccccc1NC(C)=O | 45 µM | > 100 | > 100 | 61.7 | 50.8 | 70.2 | 91.4 | 57.1 | 81.8 | > 100 | > 100 | 83.4 | > 100 | 83.9 | 69.8 | > 100 | 64.3 | 73.2 | – |
| CC(=O)OC1C(O)COC(O[C@H]2CC[C@]34C[C@]35CC[C@]3(C)C([C@@]6(C)CC[C@@H](C(C)(C)O)O6)[C@@H](O)C[C@@]3(C)C5C[C@H](OC3OCC(O)C(O)C3O)[C@H]4C2(C)C)C1OC1OCC(O)C(O)C1O (some centres undefined) | > 100 µM | > 100 | > 100 | > 100 | > 100 | > 100 | > 100 | > 100 | > 100 | > 100 | > 100 | > 100 | > 100 | > 100 | > 100 | > 100 | > 100 | > 100 | – |
| O=c1oc2ccccc2c(Nc2ccc3c(c2)S(=O)(=O)c2ccccc2O3)c1[N+](=O)[O-] | 58.8 µM | 79 | 40 | 68 | 52.6 | 42.1 | 67.9 | 73.5 | 74.9 | 64.6 | 92.9 | 51.3 | 56.6 | 62.6 | > 100 | 62.1 | 58.4 | 52.4 | – |
| COc1cc(/C=C2/CCS(=O)(=O)c3ccc(C)cc3C2=O)cc(OC)c1OC | > 42.7 µM | 20.1 | 16.8 | 37.8 | > 35.7 | > 31 | 11.2 | > 100 | 45.9 | > 36.3 | 21.9 | > 40.8 | 14.9 | > 36.2 | > 42 | > 100 | > 35.4 | 30 | – |
| C#CCOCC12C=CC(O1)C1C(=O)N(C)C(=O)C12 (centres undefined) | 21 µM and > 100 µM | > 100 | > 100 | > 100 | > 100 | > 100 | > 100 | > 100 | > 100 | > 100 | > 100 | > 100 | > 100 | > 100 | > 100 | > 100 | > 100 | > 100 | > 100 |
| CCC1C(c2cc(OC)c(OC)c(OC)c2)c2cc3c(cc2OC1N1CCCC1)OCO3 (centres undefined) | 55.6 µM | 8.53 | 23.4 | 26.6 | 8.16 | 11.7 | 20.5 | > 76 | 8.78 | 40.3 | 31.8 | 9.8 | 13.7 | 39 | 20.2 | > 37.6 | 22.2 | 31.4 | – |
| COc1ccc(NC(=O)/C(=N\NC(=O)C[n+]2ccccc2)c2c(O)c3ccc(O)cc3oc2=O)c([N+](=O)[O-])c1 | > 100 µM | > 100 | > 100 | > 100 | > 100 | > 100 | > 100 | > 100 | > 100 | > 100 | > 100 | > 100 | > 100 | > 100 | > 100 | > 100 | > 100 | > 100 | – |
